# Test results taken from patent US20230278998A1, “Compound containing structure of a five-membered heteroaromatic ring, pharmaceutical compositions thereof and applications thereof” (280 Bio, Inc., priority 2022, published 2023).
# Target: PARG (389-976) (Homo sapiens (Human), UniProt Q86W56)
# Experiment: PARG enzyme inhibition assay (TR-FRET)
# Type: biochemical
# Settings: Table 1, class symbol
# Method: PARG Enzyme Inhibition Assay
# PARG in vitro assays were conducted in standard 384-well plates in a total volume of 15 μL.
# PARG (389-976), sequence (Q86W56 389-976): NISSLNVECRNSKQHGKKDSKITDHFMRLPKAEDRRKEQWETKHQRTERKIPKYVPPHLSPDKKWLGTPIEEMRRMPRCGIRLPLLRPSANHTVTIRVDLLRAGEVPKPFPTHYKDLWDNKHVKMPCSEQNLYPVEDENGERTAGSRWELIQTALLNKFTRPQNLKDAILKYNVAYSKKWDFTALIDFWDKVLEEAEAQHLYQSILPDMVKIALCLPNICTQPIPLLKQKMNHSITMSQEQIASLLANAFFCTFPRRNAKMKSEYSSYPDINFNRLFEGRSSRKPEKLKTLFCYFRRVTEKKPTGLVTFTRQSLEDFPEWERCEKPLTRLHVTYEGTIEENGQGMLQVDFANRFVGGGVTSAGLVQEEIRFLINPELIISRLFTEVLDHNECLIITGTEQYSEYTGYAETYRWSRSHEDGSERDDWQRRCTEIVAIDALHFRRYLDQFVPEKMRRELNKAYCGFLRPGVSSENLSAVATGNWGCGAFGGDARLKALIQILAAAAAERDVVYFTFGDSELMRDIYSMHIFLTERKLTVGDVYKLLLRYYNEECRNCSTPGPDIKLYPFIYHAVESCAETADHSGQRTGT
row,SMILES,IC50 [nM]
1,Cc1nc(C)c(Cn2nc(-c3nnc(C(F)F)s3)c3cc(S(=O)(=O)NC4(C)CC4)ccc32)s1 [Compound 1],< 100
2,O=S(=O)(NC1(CF)CC1)c1ccc2c(c1)c(-c1nnc(C(F)F)s1)nn2CC1CC1 [Compound 12],< 100

# Other lines, results leading:
row,IC50 [nM],SMILES
1,< 100,Cc1nnc(-c2nn(Cc3sc(C)nc3C)c3ccc(S(=O)(=O)NC4(C)CC4)cc23)s1 [Compound 2]
2,< 100,Cc1nc(C)c(Cn2nc(-c3nnc(C(F)F)s3)c3cc(S(=O)(=O)NC4(CF)CC4)ccc32)s1 [Compound 4]
3,< 100,Cc1nc(C)c(Cn2c(Cl)c(-c3nnc(C(F)F)s3)c3cc(S(=O)(=O)NC4(C)CC4)ccc32)s1 [Compound 7]
4,< 100,Cc1nc(C)c(Cn2cc(-c3nnc(C(F)F)s3)c3cc(S(=O)(=O)NC4(C)CC4)ccc32)s1 [Compound 8]
5,< 100,Cc1nc(C)c(Cn2nc(-c3nnc(C(F)F)s3)c3cc(S(=O)(=O)NC4(C)CC4)cnc32)s1 [Compound 9]
6,100 to 1000,Cc1nc(C)c(Cn2nc(-c3nnc(C(F)F)s3)c3cc(S(=O)(=O)NC4(C)CC4)cc(C(F)(F)F)c32)s1 [Compound 10]
7,100 to 1000,Cc1nc(C)c(Cn2nc(-c3nnc(C(F)F)s3)c3nc(S(=O)(=O)NC4(C)CC4)ccc32)s1 [Compound 11]

# Same assay, conditions: Table 2, class symbol
row,SMILES,IC50 [nM]
1,CC(C)C(=O)N1CCN(c2cc(S(=O)(=O)NC3(C)CC3)cc3c(-c4nnc(C(F)F)s4)nn(CC4CC4)c23)CC1 [Compound 15],< 100
2,CC(C)C(=O)N1CCN(c2cc(S(=O)(=O)NC3(C#N)CC3)cc3c(-c4nnc(C(F)F)s4)n[nH]c23)CC1 [Compound 18],< 100
3,Cn1nc(-c2nnc(C(F)F)s2)c2cc(S(=O)(=O)NC3(C#N)CC3)cc(N3CCN(C(=O)C4CC4)CC3)c21 [Compound 24],< 100
4,Cn1nc(-c2nnc(C(F)F)s2)c2cc(S(=O)(=O)NC3(C)CC3)cc(N3CCOCC3)c21 [Compound 25],< 100
5,Cn1nc(-c2nnc(C(F)F)s2)c2cc(S(=O)(=O)NC3(C)CC3)cc(N3CCN(C(=O)C4CC4)CC3)c21 [Compound 27],< 100
6,Cn1nc(-c2nnc(C(F)F)s2)c2cc(S(=O)(=O)NC3(C#N)CC3)cc(-c3ccccc3)c21 [Compound 28],< 100
7,Cn1nc(-c2nnc(C(F)F)s2)c2cc(S(=O)(=O)NC3(C#N)CC3)cc(N3CCOCC3)c21 [Compound 29],< 100
8,Cn1nc(-c2nnc(C(F)F)s2)c2cc(S(=O)(=O)NC3(C#N)CC3)cc(N3CCN(S(C)(=O)=O)CC3)c21 [Compound 34],< 100
9,C[C@H]1CN(c2cc(S(=O)(=O)NC3(C#N)CC3)cc3c(-c4nnc(C(F)F)s4)nn(C)c23)CCO1 [Compound 35],< 100
10,Cn1nc(-c2nnc(C(F)F)s2)c2cc(S(=O)(=O)NC3(C#N)CC3)cc(N3CCN(C(=O)c4ccccc4)CC3)c21 [Compound 36],< 100
11,C[C@@H]1CN(c2cc(S(=O)(=O)NC3(C#N)CC3)cc3c(-c4nnc(C(F)F)s4)nn(C)c23)CCO1 [Compound 37],< 100
12,Cn1nc(-c2nnc(C(F)F)s2)c2cc(S(=O)(=O)NC3(C#N)CC3)cc(N3CCN(C(=O)C4(C)CC4)CC3)c21 [Compound 38],< 100
13,Cn1nc(-c2nnc(C(F)F)s2)c2cc(S(=O)(=O)NC3(C#N)CC3)cc(N3CCN(c4cccnn4)CC3)c21 [Compound 41],< 100
14,Cn1nc(-c2nnc(C(F)F)s2)c2cc(S(=O)(=O)NC3(C#N)CC3)cc(N3CCC(O)CC3)c21 [Compound 42],< 100
15,Cn1nc(-c2nnc(C(F)F)s2)c2cc(S(=O)(=O)NC3(C#N)CC3)cc(N3CCN(C(=O)c4ccccn4)CC3)c21 [Compound 43],< 100
16,Cn1nc(-c2nnc(C(F)F)s2)c2cc(S(=O)(=O)NC3(C#N)CC3)cc(N3CCC(CO)CC3)c21 [Compound 44],< 100
17,Cn1nc(-c2nnc(C(F)F)s2)c2cc(S(=O)(=O)NC3(C#N)CC3)cc(N3CCC4(CC3)COC4)c21 [Compound 46],< 100

row,SMILES,IC50 [nM]
1,Cn1nc(-c2nnc(C(F)F)s2)c2cc(S(=O)(=O)NC3(C#N)CC3)cc(N3CCN(C(=O)C(F)(F)F)CC3)c21 [Compound 47],< 100
2,CC(C)S(=O)(=O)N1CCN(c2cc(S(=O)(=O)NC3(C#N)CC3)cc3c(-c4nnc(C(F)F)s4)nn(C)c23)CC1 [Compound 48],< 100
3,CC(C)CN1CCN(c2cc(S(=O)(=O)NC3(C#N)CC3)cc3c(-c4nnc(C(F)F)s4)nn(C)c23)CC1 [Compound 49],< 100
4,CCC(C)C(=O)N1CCN(c2cc(S(=O)(=O)NC3(C#N)CC3)cc3c(-c4nnc(C(F)F)s4)nn(C)c23)CC1 (stereo not shown) [Compound 50],< 100
5,Cn1nc(-c2nnc(C(F)F)s2)c2cc(S(=O)(=O)NC3(C#N)CC3)cc(N3CCN(C(=O)N4CCCC4)CC3)c21 [Compound 51],< 100
6,Cn1nc(-c2nnc(C(F)F)s2)c2cc(S(=O)(=O)NC3(C#N)CC3)cc(N3CCN(C(=O)CC(F)(F)F)CC3)c21 [Compound 52],< 100
7,Cn1nc(-c2nnc(C(F)F)s2)c2cc(S(=O)(=O)NC3(C#N)CC3)cc(N3CCN(c4ccccc4)CC3)c21 [Compound 53],< 100
8,CC(C)N1CCN(c2cc(S(=O)(=O)NC3(C#N)CC3)cc3c(-c4nnc(C(F)F)s4)nn(C)c23)CC1 [Compound 54],< 100
9,CC(C)C(=O)N1CCN(c2cc(S(=O)(=O)NC3(C#N)CC3)cc3c(-c4nnc(C(F)F)s4)nn(C(F)F)c23)CC1 [Compound 55],< 100
10,Cc1nnc(-c2nn(C)c3c(N4CCN(C(=O)C(C)C)CC4)cc(S(=O)(=O)NC4(C#N)CC4)cc23)s1 [Compound 56],< 100
11,Cn1nc(-c2nnc(C(F)F)s2)c2cc(S(=O)(=O)NC3(C#N)CC3)cc(N3CCC(N=[N+]=[N-])CC3)c21 [Compound 60],< 100
12,CC(C)C(=O)N1CCN(c2cc(S(=O)(=O)NC3(C#N)CC3)cc3c(-c4cnn(C)c4)nn(C)c23)CC1 [Compound 61],< 100
13,CC(C)C(=O)N1CC2CCC(C1)N2c1cc(S(=O)(=O)NC2(C)CC2)cc2c(-c3nnc(C(F)F)s3)nn(C)c12 [Compound 62],< 100
14,CC(C)C(=O)N1CCN(c2cc(S(=O)(=O)NC3(C)CC3)cc3c(-c4nnc(C(F)F)s4)nn(C)c23)C2CC21 (stereo not shown) [Compound 63],< 100
15,CC(C)C(=O)N1CCN(c2cc(S(=O)(=O)NC3(C)CC3)cc3c(-c4nnc(C(F)F)s4)csc23)CC1 [Compound 64],< 100
16,CC(C)C(=O)N1C2CCC1CN(c1cc(S(=O)(=O)NC3(C)CC3)cc3c(-c4nnc(C(F)F)s4)nn(C)c13)C2 [Compound 65],< 100

# More lines, now with the values ahead:
row,IC50 [nM],SMILES
1,< 100,Cc1nc(C)c(Cn2nc(-c3nnc(C(F)F)s3)c3cc(S(=O)(=O)NC4(C)CC4)c(F)cc32)s1 [Compound 13]
2,< 100,Cc1nc(C)c(Cn2nc(-c3nnc(C(F)F)s3)c3cc(S(=O)(=O)NC4(C)CC4)cc(F)c32)s1 [Compound 14]
3,< 100,CC(C)C(=O)N1CCN(c2cc(S(=O)(=O)NC3(C)CC3)cc3c(-c4nnc(C(F)F)s4)nn(C(C)C)c23)CC1 [Compound 16]
4,< 100,Cc1nc(C)c(Cn2nc(-c3nnc(C(F)F)s3)c3cc(S(=O)(=O)NC4(C)CC4)cc(N4CCN(C(=O)C(C)C)CC4)c32)s1 [Compound 19]
5,< 100,Cn1nc(-c2nnc(C(F)F)s2)c2cc(S(=O)(=O)NC3(C)CC3)cc(N3CCn4cncc4C3)c21 [Compound 20]
6,< 100,CC(C)C(=O)N1CCN(c2cc(S(=O)(=O)NC3(C)CC3)cc3c(-c4nnc(C(F)F)s4)nn(C4CC4)c23)CC1 [Compound 21]
7,< 100,CCn1nc(-c2nnc(C(F)F)s2)c2cc(S(=O)(=O)NC3(C)CC3)cc(N3CCN(C(=O)C(C)C)CC3)c21 [Compound 22]
8,< 100,CC(C)C(=O)N1CCN(c2cc(S(=O)(=O)NC3(C)CC3)cc3c(-c4nnc(C(F)F)s4)nn(CC(F)(F)F)c23)CC1 [Compound 23]
9,< 100,CCn1nc(-c2nnc(C(F)F)s2)c2cc(S(=O)(=O)NC3(C#N)CC3)cc(N3CCN(C(=O)C(C)C)CC3)c21 [Compound 26]
10,< 100,CC(C)C(=O)N1CCN(c2cc(S(=O)(=O)NC3(C#N)CC3)cc3c(-c4nnc(C(F)F)s4)nn(CC(F)(F)F)c23)CC1 [Compound 30]
11,< 100,Cn1nc(-c2nnc(C(F)F)s2)c2cc(S(=O)(=O)NC3(C#N)CC3)cc(-c3ccncn3)c21 [Compound 31]
12,< 100,CC(=O)N1CCN(c2cc(S(=O)(=O)NC3(C#N)CC3)cc3c(-c4nnc(C(F)F)s4)nn(C)c23)CC1 [Compound 32]
13,< 100,CN(C)C(=O)N1CCN(c2cc(S(=O)(=O)NC3(C#N)CC3)cc3c(-c4nnc(C(F)F)s4)nn(C)c23)CC1 [Compound 33]
14,< 100,CC(C)C(=O)N1CC=C(c2cc(S(=O)(=O)NC3(C#N)CC3)cc3c(-c4nnc(C(F)F)s4)nn(C)c23)CC1 [Compound 40]
15,< 100,CCC(=O)N1CCN(c2cc(S(=O)(=O)NC3(C#N)CC3)cc3c(-c4nnc(C(F)F)s4)nn(C)c23)CC1 [Compound 45]
16,< 100,N#CC1(NS(=O)(=O)c2ccc3c(c2)c(-c2nnc(C(F)F)s2)nn3Cc2ccc(F)cc2)CC1 [Compound 57]
17,< 100,CC1(NS(=O)(=O)c2ccc3c(c2)c(-c2nnc(C(F)F)s2)nn3Cc2ccc3cn[nH]c3c2)CC1 [Compound 58]
18,< 100,CC1(NS(=O)(=O)c2ccc3c(c2)c(-c2nnc(C(F)F)s2)nn3Cc2ccc3cncn3c2)CC1 [Compound 59]

# Same assay, conditions: Table 2, value in brackets
row,IC50 [nM],SMILES
1,0.9,CC(C)C(=O)N1CCN(c2cc(S(=O)(=O)NC3(C#N)CC3)cc3c(-c4nnc(C(F)F)s4)n[nH]c23)CC1 [Compound 18]
2,0.9,Cn1nc(-c2nnc(C(F)F)s2)c2cc(S(=O)(=O)NC3(C#N)CC3)cc(N3CCC4(CC3)COC4)c21 [Compound 46]

# Same assay, conditions: Table 3, class symbol
row,SMILES,IC50 [nM]
1,CCn1nc(-c2nnc(C(F)F)s2)c2c(F)c(S(=O)(=O)NC3(C)CC3)cc(N3CCN(C(=O)C(C)C)CC3)c21 [Compound 66],< 100
2,C[C@@H]1CN(c2cc(S(=O)(=O)NC3(C#N)CC3)cc3c(-c4nnc(C(F)F)s4)nn(C)c23)CCN1C(=O)N(C)C [Compound 70],< 100

# The next lines start with the values.
row,IC50 [nM],SMILES
1,< 100,CCn1nc(-c2nnc(C(F)F)s2)c2cc(S(=O)(=O)NC3(C)CC3)c(F)c(N3CCN(C(=O)C(C)C)CC3)c21 [Compound 67]
2,< 100,CC(C)C(=O)N1CCN(c2cc(S(=O)(=O)NC3(C#N)CC3)cc3c(-c4nnc(C(F)F)s4)nn(C)c23)C[C@H]1C [Compound 69]
3,< 100,C[C@H]1CN(c2cc(S(=O)(=O)NC3(C#N)CC3)cc3c(-c4nnc(C(F)F)s4)nn(C)c23)CCN1C(=O)N(C)C [Compound 71]
